Results published in article PMC11045757, “Group 3 medulloblastoma transcriptional networks collapse under domain specific EP300/CBP inhibition” (Nature Communications, 2024).
Values joined by “and” are separate entries in the source; they are usually repeats but may differ in a detail not shown here. Equal entries are not always repeated.

Assays:
Type in all cases: binding
[1] = target: T1, EP300 bromodomain (Homo sapiens, UniProt Q09472); test: Differential scanning fluorimetry (DSF) thermal shift
T1 construct: 6xHis (cleaved yes); host or cells: E. coli BL21 (DE3) RIL
T1 sequence (Q09472 1048-1161): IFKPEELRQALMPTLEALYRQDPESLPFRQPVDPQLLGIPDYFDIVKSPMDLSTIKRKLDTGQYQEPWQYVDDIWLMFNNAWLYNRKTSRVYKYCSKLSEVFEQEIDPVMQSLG
Method in brief: (§1)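 Thermal shift of 5 μM E. coli-expressed bromodomain with 100 μM compound in 50 mM HEPES pH 7.5, 150 mM NaCl, 2 mM DTT, 2% DMSO, 5X SYPRO Orange, quadruplicate. Heated 25→95 °C at 1 °C/min, fluorescence at 610 nm; ΔTm relative to DMSO reference wells.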

[2] = target: T2, BRD4-BD1 (BRD4-1) (Homo sapiens, UniProt O60885); test: as above
T2 construct: BRD4-BD1 (residues 44-168); 6xHis (cleaved yes); host or cells: E. coli BL21 (DE3) RIL
Method in brief: as §1

[3] = target: T3, FALZ (Homo sapiens, UniProt Q12830); test: BromoScan profiling (DiscoverX); details: read-out: Percent Control FALZ
T3 construct: purchased Eurofins DiscoverX (BROMOscan)

[4] = DSF, 5 μM protein, 100 μM compound, three independent experiments, average ± SD

With `CO[C@H]1CC[C@H](n2c([C@@H]3CCCC(=O)N3c3ccc(F)c(F)c3)nc3cc(-c4c(C)noc4C)ccc32)CC1` [CCS1477] the “ΔTm (°C)” value ([1]; DSF thermal shift vs DMSO, EP300 bromodomain, Fig 2B) was 18.3 °C, the “∆Tm (°C) EP300” value [1, 4] was 18.3 ± 0.2 °C and the “ΔTm (°C) EP300” value ([1]; Figure 3B, DSF, EP300) was 18.3 °C. The “ΔTm (°C)” value ([2]; DSF thermal shift vs DMSO, BRD4-BD1, Fig 2B) was 6.7 °C, the “∆Tm (°C) BRD4-1” value [2, 4] was 6.7 ± 0.16 °C and 6.7 °C and the remaining binding at 1 µM [3] was 63%.
